This note sets out measurements from patent US20090082337A1, “Compositions Comprising Quinolone and Methods for Treating or Controlling Infections” (priority 2007, published 2009).

For data set [1], the system named is Staphylococcus aureus (ATCC 33591). The data set is described as follows: In vitro anti-bacterial activity (MIC90), methicillin-resistant Staphylococcus aureus isolates. Type of data set: cell-based. As to conditions: ATCC33591; methicillin-resistant Staphylococcus aureus (ATCC 33591). As to the method: (§1) In yet another aspect, said another quinolone has a MIC90 value for a Gram-negative bacterium that is lower than that of the fluoroquinolone having Formula I, II, III, IV, V, VI, VII, or VIII for the same bacterium, said fluoroquinolone being included in the composition. MIC90 is the minimum concentration of the active compound required to inhibit ninety percent of the growth of a specified pathogen, in μg/ml.
(§2) Anti-bacterial activity of the compound having Formula IV was tested against some methicillin-resistant Staphylococcus aureus bacteria strains and compared to the anti-bacterial activity of three commercially available antibiotics (nadifloxacin, ofloxacin, and sparfloxacin).

The subject of data set [2] is Staphylococcus aureus (ATCC 33592). The description is as above. In kind it is cell-based. The note with it: ATCC33592; methicillin-resistant Staphylococcus aureus (ATCC 33592). As to the method: as §1, §2
The test system of data set [3] is Staphylococcus aureus (ATCC 33593). Described as above. Type of data set: cell-based. The note with it: ATCC33593; methicillin-resistant Staphylococcus aureus (ATCC 33593). As to the method: as §1, §2
The test system of data set [4] is Staphylococcus aureus (No. 415). The data set is described as above. In kind it is cell-based. As to conditions: methicillin-resistant Staphylococcus aureus (No. 415). As to the method:
as §1, §2

Data set [5] has as its system Staphylococcus aureus (No. 419). Described as above. Type of data set: cell-based. As to conditions: methicillin-resistant Staphylococcus aureus (No. 419). As to the method: as §1, §2
In data set [6] the test system is Staphylococcus aureus (No. 420). The description is as above. In kind it is cell-based. The note with it: methicillin-resistant Staphylococcus aureus (No. 420). As to the method:
as §1, §2

The subject of data set [7] is Staphylococcus aureus (No. 421). The description is as above. In kind it is cell-based. As to conditions: methicillin-resistant Staphylococcus aureus (No. 421). As to the method:
as §1, §2

Data set [8] has as its system Bacteroides fragillis (GAI 0675). The data set is described as follows: In vitro anti-bacterial activity (MIC90), anaerobic bacteria. In kind it is cell-based. As to conditions: anaerobic reference bacteria.
The subject of data set [9] is Bacteroides thetaiotaomicron (GAI 0659). The data set is described as above. In kind it is cell-based.
Data set [10] concerns Bacteroides vulgatus (GAI 0673). The data set is described as above. Type of data set: cell-based. As to conditions: Phocaeicola vulgatus, anaerobic reference bacteria.
The subject of data set [11] is Veillonella parvula (GAI 5602). The description is as above. In kind it is cell-based. The note with it: anaerobic reference bacteria.
The next data set concerns Moraxella species. The data set is described as follows: In vitro anti-bacterial activity (MIC90), ophthalmologic clinical bacteria isolates. As to conditions: Gram-negative. Type of data set: cell-based.
Another data set has as its system Pseudomonas aeruginosa. The description is as above. The note with it: Gram-negative. Type of data set: cell-based.
The test system of a further data set is Haemophilus influenzae. The description is as above. Type of data set: cell-based. As to conditions: Gram-negative.
The subject of another data set is Staphylococcus aureus. Described as above. Type of data set: cell-based. The note with it: Gram-positive.
Data set [12] deals with Coagulase-negative Staphylococcus. The data set is described as above. In kind it is cell-based. As to conditions: Gram-positive.
The test system of the next data set is Streptococcus pneumoniae. The description is as above. Type of data set: cell-based. The note with it: Gram-positive.
The test system of the next data set is Corynebacterium species. The description is as above. In kind it is cell-based. As to conditions: Gram-positive. The text has this: As disclosed above, most of these bacteria strains are also relevant to infections of the ear and upper respiratory tract.
Another data set concerns Propionibacterium acnes. Described as above. In kind it is cell-based. As to conditions: Cutibacterium acnes, Gram-positive.
Data set [13] concerns Ofloxacin-resistant Staphylococcus aureus. The data set is described as above. Type of data set: cell-based. As to conditions: antibiotic-resistant organisms.
The test system of data set [14] is Gentamycin-resistant Staphylococcus aureus. The description is as above. Type of data set: cell-based. As to conditions: antibiotic-resistant organisms.
The test system of data set [15] is Gentamycin-resistant Pseudomonas aeruginosa. The data set is described as above. Type of data set: cell-based. As to conditions: antibiotic-resistant organisms.
Data set [16] relates to Penicillin-resistant Streptococcus pneumoniae. Described as above. In kind it is cell-based. As to conditions: antibiotic-resistant organisms.
The test system of the next data set is E. coli (ATCC 25922). The data set is described as follows: MICs of compound having Formula IV and ciprofloxacin alone and in combination. As to conditions: Escherichia coli, ATCC25922, alone, read-out: MIC, drug alone. In kind it is cell-based. As to the method: (§3) Compositions having various combinations of concentrations of compound having Formula IV and cirprofloxacin were tested systematically against S. aureus, P. aeruginosa, and E. coli.

In data set [17] the test system is P. aeruginosa (ATCC 27853). Described as above. Type of data set: cell-based. As to conditions: Pseudomonas aeruginosa, ATCC27853, alone, read-out: MIC, drug alone. As to the method: as §3
A further data set deals with S. aureus (ATCC 29213). The data set is described as above. Type of data set: cell-based. The note with it: Staphylococcus aureus, ATCC29213, alone, read-out: MIC, drug alone. As to the method:
as §3

The nature of data set [18]: Stability of the compound having Formula IV in solution. As to conditions: for remaining amount of the compound in solution: initial concentration 100 μg/ml. In kind it is physicochemical. The text has this: The stability of the compound having Formula IV in solution is shown in Table 7, as the remaining amount (expressed as the percentage of the initial amount) of the compound after selected times. The compound is stable in the pH range of most interest for the present invention.

In brackets after ≈: the same amount, converted by molar mass. Where two headings read alike, the source gives them in different places.

On to `C[C@@H]1CN(c2c(F)c(N)c3c(=O)c(C(=O)O)cn(C4CC4)c3c2F)C[C@H](C)N1` [Sparfloxacin, sparfloxacin], for which the MIC90 in data set [1] came to 0.024 µg/mL (≈ 0.0612 µM); in [2], 0.1 µg/mL (≈ 0.255 µM); in data set [3], 0.024 µg/mL (≈ 0.0612 µM); in data set [4] it was 0.2 µg/mL (≈ 0.51 µM); in data set [5] it was 1.56 µg/mL (≈ 3.98 µM); in data set [6] it was 0.78 µg/mL (≈ 1.99 µM). Besides, the MIC90 in data set [7] worked out at 0.39 µg/mL (≈ 0.994 µM); in data set [8], 0.78 µg/mL (≈ 1.99 µM); in [9] (Bacteroides thetaiotaomicron), 0.78 µg/mL (≈ 1.99 µM); in data set [10] it was 0.78 µg/mL (≈ 1.99 µM); in data set [11], 0.2 µg/mL (≈ 0.51 µM).
With `CC1CCc2c(N3CCC(O)CC3)c(F)cc3c(=O)c(C(=O)O)cn1c23` (stereo not drawn) [Nadifloxacin, nadifloxacin], the MIC90 turned out to be 0.006 µg/mL (≈ 0.0166 µM) in data set [1]; 0.05 µg/mL (≈ 0.139 µM) in [2]; 0.024 µg/mL (≈ 0.0666 µM) in [3]; 0.1 µg/mL (≈ 0.277 µM) in [4]; 0.39 µg/mL (≈ 1.08 µM) in data set [5]; 0.78 µg/mL (≈ 2.16 µM) in data set [6]. Also, the MIC90 is 0.78 µg/mL (≈ 2.16 µM) in data set [7]; 1.56 µg/mL (≈ 4.33 µM) in data set [8]; 1.56 µg/mL (≈ 4.33 µM) in data set [9] (Bacteroides thetaiotaomicron); 0.78 µg/mL (≈ 2.16 µM) in [10]; 0.78 µg/mL (≈ 2.16 µM) in [11].
As to `CC1COc2c(N3CCN(C)CC3)c(F)cc3c(=O)c(C(=O)O)cn1c23` (stereo not drawn) [Ofloxacin, ofloxacin], the MIC90 is 0.05 µg/mL (≈ 0.138 µM) in data set [1]; 0.39 µg/mL (≈ 1.08 µM) in data set [2]; 0.2 µg/mL (≈ 0.553 µM) in data set [3]; 0.78 µg/mL (≈ 2.16 µM) in data set [4]; 3.13 µg/mL (≈ 8.66 µM) in data set [5]; 1.56 µg/mL (≈ 4.32 µM) in data set [6]. Moreover, the MIC90 in data set [7] was 1.56 µg/mL (≈ 4.32 µM); in [8], 1.56 µg/mL (≈ 4.32 µM); in data set [9] (Bacteroides thetaiotaomicron), 3.13 µg/mL (≈ 8.66 µM); in data set [10] it was 3.13 µg/mL (≈ 8.66 µM); in [11], 0.39 µg/mL (≈ 1.08 µM); with Moraxella species, 0.13 µg/mL (≈ 0.36 µM). Further, the MIC90 in the data set with Pseudomonas aeruginosa was 4 µg/mL (≈ 11.1 µM); against Haemophilus influenzae it was at most 0.06 µg/mL; against Staphylococcus aureus, 32 µg/mL (≈ 88.6 µM); in data set [12], 8 µg/mL (≈ 22.1 µM); with Streptococcus pneumoniae, 2 µg/mL (≈ 5.53 µM); in the data set with Corynebacterium species, 32 µg/mL (≈ 88.6 µM). Besides, the MIC90 is 1 µg/mL (≈ 2.77 µM) against Propionibacterium acnes; above 128 µg/mL in data set [13]; 128 µg/mL (≈ 354 µM) in data set [14]; 64 µg/mL (≈ 177 µM) in [15]; 2 µg/mL (≈ 5.53 µM) in data set [16].
`N[C@@H]1CCCCN(c2c(F)cc3c(=O)c(C(=O)O)cn(C4CC4)c3c2Cl)C1` [Compound Having Formula IV]: the MIC90 in data set [1] was found to be 0.012 µg/mL; in data set [2], 0.05 µg/mL; in data set [3] it was 0.012 µg/mL; in data set [4], 0.05 µg/mL; in data set [5], 0.1 µg/mL; in data set [6], 0.1 µg/mL. Besides, the MIC90 in data set [7] stood at 0.2 µg/mL; in data set [8], 0.1 µg/mL; in data set [9] (Bacteroides thetaiotaomicron (GAI 0659), anaerobic reference bacteria, read-out: MIC90) it was 0.2 µg/mL; in data set [10] it was 0.1 µg/mL; in [11], 0.1 µg/mL; in the data set on Moraxella species, 0.13 µg/mL. The MIC90 was 4 µg/mL against Pseudomonas aeruginosa; at most 0.06 µg/mL in the data set on Haemophilus influenzae; 1 µg/mL with Staphylococcus aureus; 0.5 µg/mL in data set [12]; 0.13 µg/mL in the data set with Streptococcus pneumoniae; 2 µg/mL against Corynebacterium species. The MIC90 came out at 0.25 µg/mL against Propionibacterium acnes; 8 µg/mL in [13]; 4 µg/mL in data set [14]; 32 µg/mL in [15]; 0.13 µg/mL in [16]. Also, the MIC – broadly, the lowest concentration that inhibits growth of the organism – in the data set with E. coli (ATCC 25922) was determined as 0.12 µg/mL; in data set [17], 4 µg/mL; in the data set with S. aureus (ATCC 29213), 0.03 µg/mL. The “remaining amount of the compound in solution” value (“remaining amount” for short) was 100 percentage of the initial amount in [18] (pH 3.5, 0 week); 99.0 percentage of the initial amount in data set [18] (pH 3.5, 2 weeks); 98.8 percentage of the initial amount in [18] (pH 3.5, 4 weeks); 100 percentage of the initial amount in data set [18] (pH 4.0, 0 week); 98.5 percentage of the initial amount in data set [18] (pH 4.0, 2 weeks); 98.4 percentage of the initial amount in [18] (pH 4.0, 4 weeks). Also, the “remaining amount” value in [18] (pH 4.5, 0 week) is 100 percentage of the initial amount; in data set [18] (pH 4.5, 2 weeks), 98.4 percentage of the initial amount; in data set [18] (pH 4.5, 4 weeks) it was 98.4 percentage of the initial amount; in data set [18] (pH 5.0, 0 week), 100 percentage of the initial amount; in data set [18] (pH 5.0, 2 weeks), 98.2 percentage of the initial amount; in data set [18] (pH 5.0, 4 weeks), 98.8 percentage of the initial amount. In addition, the “remaining amount” value in data set [18] (pH 5.5, 0 week) was 100 percentage of the initial amount; in data set [18] (pH 5.5, 2 weeks) it was 96.8 percentage of the initial amount; in data set [18] (pH 5.5, 4 weeks), 96.8 percentage of the initial amount; in data set [18] (pH 6.0, 0 week) it was 100 percentage of the initial amount; in data set [18] (pH 6.0, 2 weeks), 96.3 percentage of the initial amount; in [18] (pH 6.0, 4 weeks), 98.0 percentage of the initial amount. The “remaining amount” value was 100 percentage of the initial amount in [18] (pH 6.5, 0 week); 95.3 percentage of the initial amount in data set [18] (pH 6.5, 2 weeks); 95.6 percentage of the initial amount in [18] (pH 6.5, 4 weeks). Moreover, in data set [18] (pH range of most interest for the present invention), the “stability in solution (in words)” value was “stable”.
